Measurements published in patent publication US20070218002A1, “Method for Detecting Alzheimer's Disease and other Forms of Dementia, and Measuring Their Progression” (priority 2004, published 2007).
Several values for one entry are separate records, joined by “and”; a condition that tells them apart may be missing. Equal values may be shown once. Entries after “also recorded” stand apart in the source; their conditions may differ.

Experiments:
[1] = system: Tau aggregates and amyloid plaques; experiment: In vitro [F-18]FDDNP digital autoradiography on brain tissue slices; format: binding, human
Description: Two AD and three control brain samples were obtained at the time of autopsy from the Alzheimer's Disease Research Center at USC Keck School of Medicine, Los Angeles. Glass mounted whole-hemisphere brain cryosections (100 μm thick), cut at the level of hippocampus, were incubated with 1.85 MBq/mL of […] in 50 mM Tris buffer/saline (pH=7.4) for 2 hours at room temperature. The samples were exposed to β^+-sensitive phosphor storage plates for 60 min, scanned in with BAS 5000 Phosphorimager, and analyzed with MacBAS software provided with the instrument (Fuji Film Medical Systems USA, Stamford, Conn.). […] All values were normalized to the inner layer, known to be well preserved in AD (16). [F-18]FDDNP autoradiography was performed as described elsewhere (17). In brief, the de-fattened tissue slices were incubated with 0.37 MBq/mL of [F-18]FDDNP in 1% ethanol in normal saline for 25 min at room temperature followed by differentiation in 60% 2-methyl-2-butanol (3 min). The sections were exposed to β^+-sensitive phosphor storage plates for 60 min and scanned in with BAS 5000 Phosphorimager.

[2] = system: NFTs and SPs (neurofibrillary tangles, β-amyloid senile plaques); experiment: [F-18]FDDNP PET, Logan plot relative distribution volume; format: in vivo, human; details: cerebellum reference
Description: (§1) All scans were performed with ECAT HR or ECAT HR+ scanners (Siemens-CTI, Knoxville, Tenn.). The subjects were in the supine position with the imaging plane parallel to the orbito-meatal line and with their eyes open and ears unoccluded. A 20 min transmission scan was performed to correct PET data for radiation attenuation. 320-550 MBq of a PET tracer was injected as a bolus injection via the in-dwelling venous catheter, and the consecutive dynamic head PET scans were performed for 1 hour with [F-18]FDG or for 2 hours with [F-18]MPPF or with [F-18]FDDNP.
(§2) All PET scans were decay corrected and reconstructed using filtered-back projection (Hann filter, 5 mm FWHM) with scatter and attenuation correction. The resulting images contained either 47 contiguous slices with 3.4 mm plane-to-pane separation (EXACT HR) or 63 contiguous slices with the plane-to-plane separation of 2.42 mm (EXACT HR+).
Quantitation of [F-18]FDDNP data was performed using the Logan plot graphical analysis with the cerebellum as the reference region. Distribution volume ratio (DVR) parametric images were created as described elsewhere. ROIs were drawn bilaterally on the early frames of the dynamic PET scan (3 min to 6 min post-injection) using MRI as a guide bilaterally on the transaxial images on frontal lobe, on parietal lobe, on medial temporal lobe, and on lateral temporal lobe. In addition, a single ROI was placed on posterior cingulated gyrus. DV values for cortical regions were extracted from the [F-18]FDDNP DV parametric image using the above-described ROI set. DV values were determined for all 9 cortical ROIs and for cerebellum. Relative global neocortical [F-18]FDDNP distribution volume (global DVR) was determined by dividing the DV average value of the eight neocortical ROIs with the DV average value of cerebellar ROIs. In similar fashion, regional relative distribution volumes (DVRs) were determined for frontal, parietal, lateral temporal and medial temporal areas by dividing the DV average of both ROIs from the corresponding region with the DV average value of cerebellar ROIs. The posterior cingulated gyrus DVR was determined by dividing the cingulated gyrus DV value with the DV average value of cerebellar ROIs.

5-HT1A receptors = molecular target: T1, 5-HT1A receptors (Homo sapiens, UniProt P08908); experiment: In vitro [F-18]MPPF digital autoradiography on whole-hemisphere brain cryosections; format: binding
T1 construct: Glass mounted whole-hemisphere brain cryosections (100 μm thick), cut at the level of hippocampus; from tissue; host or cells: post-mortem human brain, whole-hemisphere cryosections at the level of the hippocampus
T1 sequence (P08908 1-422): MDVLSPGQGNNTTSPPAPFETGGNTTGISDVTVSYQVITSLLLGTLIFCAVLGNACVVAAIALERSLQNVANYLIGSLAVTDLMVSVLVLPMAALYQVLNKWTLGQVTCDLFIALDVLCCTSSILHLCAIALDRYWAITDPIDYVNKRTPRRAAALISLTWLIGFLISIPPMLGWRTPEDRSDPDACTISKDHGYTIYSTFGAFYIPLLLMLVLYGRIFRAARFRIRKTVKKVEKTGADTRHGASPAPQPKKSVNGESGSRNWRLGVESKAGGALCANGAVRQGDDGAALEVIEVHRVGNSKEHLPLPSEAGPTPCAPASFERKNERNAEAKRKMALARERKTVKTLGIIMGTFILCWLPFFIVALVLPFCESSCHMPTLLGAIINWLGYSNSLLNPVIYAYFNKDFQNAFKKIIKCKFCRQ

[3] = molecular target: T2, serotonin 5-HT1A receptors (Homo sapiens, UniProt P08908); experiment: [F-18]MPPF PET, Logan plot quantitation of binding potential; format: in vivo
T2 construct: from tissue; host or cells: living human brain (in vivo PET; hippocampus, raphe nuclei, cortical regions)
T2 sequence (P08908 1-422): T1 sequence (P08908 1-422)
Description: as §1, §2
Anatomical brain magnetic resonance scans were obtained using either a 1.5 Tesla magnet (General Electric-Signa, Milwaukee, Wis.) or a 3 Tesla magnet (General Electric-Signa) scanner. […] A double echo, fast spin echo series using a 24-cm field of view and 256×256 matrix with 3 mm/0 gap (TR=6000 [3T] and 2000 [1.5T]; TE=17/85 [3T] and 30/90 [1.5T]) An inter-modality image co-registration program (7) that uses image segmentation and simulation as preprocessing procedures was used to co-register PET and anatomical MRI images of each subject. Rules for ROI drawing were based on the identification of gyral and sulcal landmarks with respect to the atlas of Talairach and Tournoux (8).
Quantitation of [F-18]MPPF binding was performed using Logan plot graphical analysis, using the cerebellum, an area largely devoid of 5-HT1A receptors, as the reference region (9). […] Tracer binding potential (BP=Bmax/Kd) parametric images were analyzed using ROIs drawn bilaterally on hippocampus, lateral temporal lobe, parietal lobe, frontal lobe, and posterior cingulate cortex, and a single ROI on the dorsal raphe nucleus using MRI as a guide. Total binding potentials (BPT, BPT=BP×volume) were determined for left and right hippocampus by multiplying the hippocampal BP values with the hippocampus volumes on co-registered MRI.

[4] = AD subjects compared to control subjects

CC(=C(C#N)C#N)c1ccc2cc(N(C)CC[18F])ccc2c1 [[F-18]FDDNP, 2-(1-{6-[(2-[F-18]fluoroethyl)(methyl)amino]-2-naphthyl}ethylidene)malononitrile]
[F-18]FDDNP binding to gray matter, autoradiography ([1]; AD tissue): increased in the gray matter of temporal and limbic lobes; also recorded: strong [F-18]FDDNP binding to the gray matter in the temporal lobe and in cingulated gyrus
[F-18]FDDNP binding to gray matter, autoradiography ([1]; normal control brain samples): uniformly low; also recorded: none of the gray matter areas from the normal control brain samples showed [F-18]FDDNP binding above background levels in white matter
FDDNP mean DVR ± 1 SD, Frontal Lobe ([2]; AD group): 1.11 ± 0.03
FDDNP mean DVR ± 1 SD, Global ([2]; AD group): 1.17±0.01
FDDNP mean DVR ± 1 SD, Lateral Temporal Lobe ([2]; AD group): 1.17 ± 0.03
FDDNP mean DVR ± 1 SD, Medial Temporal Lobe ([2]; AD group): 1.23 ± 0.04
FDDNP mean DVR ± 1 SD, Parietal Lobe ([2]; AD group): 1.17 ± 0.03
FDDNP mean DVR ± 1 SD, Posterior Cingulate Gyrus ([2]; AD group): 1.18 ± 0.06
FDDNP mean DVR ± 1 SD, Global ([2]; AD group, listed as FDDNP): 1.17 ± 0.01
FDDNP mean DVR ± 1 SD, Frontal Lobe ([2]; CTRL group): 1.05 ± 0.01
FDDNP mean DVR ± 1 SD, Global ([2]; CTRL group): 1.08±0.03
FDDNP mean DVR ± 1 SD, Lateral Temporal Lobe ([2]; CTRL group): 1.07 ± 0.03
FDDNP mean DVR ± 1 SD, Medial Temporal Lobe ([2]; CTRL group): 1.12 ± 0.05
FDDNP mean DVR ± 1 SD, Parietal Lobe ([2]; CTRL group): 1.07 ± 0.03
FDDNP mean DVR ± 1 SD, Posterior Cingulate Gyrus ([2]; CTRL group): 1.07 ± 0.05
FDDNP mean DVR ± 1 SD, Global ([2]; CTRL group, listed as FDDNP): 1.08 ± 0.03
FDDNP mean DVR ± 1 SD, Frontal Lobe ([2]; MCI group): 1.08 ± 0.01
FDDNP mean DVR ± 1 SD, Global ([2]; MCI group): 1.12 ± 0.01
FDDNP mean DVR ± 1 SD, Lateral Temporal Lobe ([2]; MCI group): 1.13 ± 0.03
FDDNP mean DVR ± 1 SD, Medial Temporal Lobe ([2]; MCI group): 1.19 ± 0.02
FDDNP mean DVR ± 1 SD, Parietal Lobe ([2]; MCI group): 1.09 ± 0.03
FDDNP mean DVR ± 1 SD, Posterior Cingulate Gyrus ([2]; MCI group): 1.12 ± 0.03

COc1ccccc1N1CCN(CCN(C(=O)c2ccc([18F])cc2)c2ccccn2)CC1 [[F-18]MPPF, 4-[F-18]fluoro-N-{2-[1-(2-methoxyphenyl)-piperazinyl]ethyl}-N-(2-pyridinyl)benzamide]
binding ratio (BR), outer layers of gray matter in the inferior temporal gyrus (5-HT1A receptors; AD cases (individual)): 1.13 and 1.16
hippocampal binding ratio (BR), CA1 field/subiculum relative to inner layer of inferior temporal gyrus gray matter (5-HT1A receptors; AD samples (individual)): 1.03 and 1.18
drop in in vitro binding, hippocampus (5-HT1A receptors; AD vs control samples): 60-70%
hippocampal binding ratio (BR), CA1 field/subiculum relative to inner layer of inferior temporal gyrus gray matter (5-HT1A receptors; control samples (individual)): 3.29 and 3.00 and 2.98
binding ratio (BR), outer layers of gray matter in the inferior temporal gyrus (5-HT1A receptors; non-demented cases (individual)): 1.46 and 1.40 and 2.01
hippocampus total binding potential (BPT=BP×volume) ([3]; AD): 2.24±0.61
[F-18]MPPF mean BP ± 1 SD, Frontal Lobe ([3]; AD group): 0.41 ± 0.13
[F-18]MPPF mean BP ± 1 SD, Lateral Temporal Lobe ([3]; AD group): 0.73 ± 0.16
[F-18]MPPF mean BP ± 1 SD, Parietal Lobe ([3]; AD group): 0.48 ± 0.13
[F-18]MPPF mean BP ± 1 SD, Posterior Cingulate Gyrus ([3]; AD group): 0.56 ± 0.20
MPPF accumulation in the hippocampi ([3]; AD patients in general): ≤ 50%
drop in dorsal raphe nucleus BP values [3, 4]: 41%
drop in hippocampus BP values [3, 4]: 27%
hippocampus BPT lower compared with controls ([3]; ADs): 49%
[F-18]MPPF mean BP ± 1 SD, Frontal Lobe ([3]; Control group): 0.49 ± 0.15
[F-18]MPPF mean BP ± 1 SD, Hippocampus ([3]; Control group): 1.62±0.07
[F-18]MPPF mean BP ± 1 SD, Lateral Temporal Lobe ([3]; Control group): 0.82 ± 0.17
[F-18]MPPF mean BP ± 1 SD, Parietal Lobe ([3]; Control group): 0.63 ± 0.15
[F-18]MPPF mean BP ± 1 SD, Posterior Cingulate Gyrus ([3]; Control group): 0.68 ± 0.06
[F-18]MPPF mean BP ± 1 SD, Raphe Nuclei ([3]; Control group): 0.63±0.09
hippocampus total binding potential (BPT=BP×volume) ([3]; MCI): 3.14±0.34
[F-18]MPPF mean BP ± 1 SD, Frontal Lobe ([3]; MCI group): 0.44 ± 0.12
[F-18]MPPF mean BP ± 1 SD, Lateral Temporal Lobe ([3]; MCI group): 0.80 ± 0.11
[F-18]MPPF mean BP ± 1 SD, Parietal Lobe ([3]; MCI group): 0.43 ± 0.11
[F-18]MPPF mean BP ± 1 SD, Posterior Cingulate Gyrus ([3]; MCI group): 0.56 ± 0.12
[F-18]MPPF mean BP ± 1 SD, Raphe Nuclei ([3]; MCI group): 0.52 ± 0.11
mean hippocampus BP value lower than in controls ([3]; MCI subjects): 13%
hippocampus BPT lower compared with controls ([3]; MCIs): 24%
hippocampus total binding potential (BPT=BP×volume) ([3]; controls): 4.40±0.22
